Laboratory results taken from BindingDB's records for patent US10981904 (Cancer Research Technology, 2021).

Molecular target: T1, Glutaminase kidney isoform, mitochondrial [63-669] (Homo sapiens, UniProt O94925)
T1 sequence (O94925 whole entry): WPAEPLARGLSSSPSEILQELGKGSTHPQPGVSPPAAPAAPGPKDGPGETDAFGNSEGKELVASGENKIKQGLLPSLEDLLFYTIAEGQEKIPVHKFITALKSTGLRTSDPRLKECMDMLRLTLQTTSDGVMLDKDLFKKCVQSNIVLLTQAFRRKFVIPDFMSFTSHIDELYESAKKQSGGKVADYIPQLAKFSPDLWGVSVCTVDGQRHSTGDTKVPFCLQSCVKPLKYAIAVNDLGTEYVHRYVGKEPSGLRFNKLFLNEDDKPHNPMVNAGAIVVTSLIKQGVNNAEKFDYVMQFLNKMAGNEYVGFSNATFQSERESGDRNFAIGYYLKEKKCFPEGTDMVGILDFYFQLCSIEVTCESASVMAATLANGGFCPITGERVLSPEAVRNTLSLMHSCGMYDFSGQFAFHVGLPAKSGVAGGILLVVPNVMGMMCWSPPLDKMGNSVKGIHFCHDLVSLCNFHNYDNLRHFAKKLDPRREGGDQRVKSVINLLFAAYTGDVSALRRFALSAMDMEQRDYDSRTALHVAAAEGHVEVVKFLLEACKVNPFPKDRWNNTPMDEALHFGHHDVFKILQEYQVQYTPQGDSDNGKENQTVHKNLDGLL
Experiment: GLS Enzyme Potency Assay
Protocol: A Glutamate Oxidase/AmplexRed coupled assay was used to measure the ability of compounds to bind to and inhibit the activity of GLS1 in vitro. […] GLS1 was diluted to 2× working concentration and incubated at room temperature to allow the tetrameric/dimeric forms to reach steady state. Assay measurements were performed in buffer comprising 50 mM TRIS pH 7.8, 100 mM NaPO4, pH 7.8, 0.001% v/v Tween20. […] DMSO concentration was maintained at 2% by back filling with DMSO solution. […] 3 μL of 100 mM glutamine diluted in assay buffer was then added and the reaction incubated at room temperature for 60 minutes. […] An artefact version of the assay where the 6His tagged GLS protein and glutamine were replaced with assay buffer was also used to rule out non specific effects on the assay components.

Compound: COC1CN(c2cc([C@H](OC)C(=O)Nc3nnc(N[C@@H]4CCN(c5cccnn5)C4)s3)ccc2F)C1 [US10981904, Example 7(b)]
- IC50: 192 nM

Compound: CO[C@H](C(=O)Nc1nnc(N[C@@H]2CCN(c3cccnn3)C2)s1)c1ccccc1C1COC1 [US10981904, Example 25]
- IC50: 1840 nM
